Measured values as given in patent US20050095241A1, “Estrogen receptor modulators and uses thereof” (priority 2003, published 2005).

What was measured:
ERE luciferase reporter = ERE luciferase reporter assay in MCF-7, Ishikawa, HeLa and SaoS2 cells; details: E2 10^−9M, 24 hours
ERE reporter gene = ERE reporter gene assay in Ishikawa cells with or without PELP1 H1 mutant; format: cell-based, human; details: Ishikawa cells transfected with ERE reporter gene, treated or not treated with estrogen; FIG. 1E
Excerpt: Ishikawa (human endometrial adenocarcinoma) cells were transfected with ERE reporter gene with or without the PELP1 H1 mutant. […]

ERα [1] = biological target: T1, ERα (Homo sapiens, UniProt P03372); test: E2-mediated transactivation with PELP1 mutant lacking C-terminal histone-binding region; details: FIG. 9
T1 sequence (P03372 1-595): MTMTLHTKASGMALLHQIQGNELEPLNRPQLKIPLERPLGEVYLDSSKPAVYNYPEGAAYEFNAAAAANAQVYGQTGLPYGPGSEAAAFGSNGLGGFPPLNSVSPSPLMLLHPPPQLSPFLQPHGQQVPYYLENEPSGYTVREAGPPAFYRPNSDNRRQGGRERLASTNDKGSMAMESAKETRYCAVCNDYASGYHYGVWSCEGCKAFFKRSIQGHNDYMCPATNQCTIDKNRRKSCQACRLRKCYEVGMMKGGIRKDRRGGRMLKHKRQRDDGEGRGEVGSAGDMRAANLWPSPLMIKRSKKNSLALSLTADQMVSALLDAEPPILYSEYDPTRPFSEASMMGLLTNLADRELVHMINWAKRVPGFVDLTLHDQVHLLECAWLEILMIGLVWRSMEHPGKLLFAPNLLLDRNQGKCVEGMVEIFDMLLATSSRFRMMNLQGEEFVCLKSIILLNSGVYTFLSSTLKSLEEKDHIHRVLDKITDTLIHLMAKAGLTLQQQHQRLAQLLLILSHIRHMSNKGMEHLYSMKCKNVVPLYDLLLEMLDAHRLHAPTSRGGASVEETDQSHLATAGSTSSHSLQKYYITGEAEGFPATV

Ishikawa cells = test: Tamoxifen-mediated agonist signaling, reporter gene and cell growth assays, Ishikawa cells; format: cell-based; details: Ishikawa cells co-transfected with ERE reporter gene; two days
Excerpt: (§1) Interference with PELP1 function blocks tamoxifen-mediated agonist activity in endometrial cell lines. Disruption of PELP1 functions was examined to assess interference with tamoxifen-mediated agonist signaling using reporter gene assays and cell growth assays performed in an endometrial cell line (Ishikawa) and a breast cancer cell line (MCF-7). Cancer cells were co-transfected with ERE reporter gene along with either (a) PELP1 cDNA, (b) PELP1 H1 […]), (c) PELP1 mutant cDNA lacking the nuclear localization signal (PELP-NLS mutant), or (d) PELP1-specific siRNA. Cells were stimulated with estrogen for two days and reporter gene activity and cell number were measured.

ERα [2] = biological target: T1, ERα; test: 3XEREluc reporter assay with ERα specific ligand in Ishikawa cells; format: cell-based; details: PELP1-transfected Ishikawa cells treated with PPT; FIG. 7C
Method: (§2) PELP1 is widely expressed in endometrial cancer cells including the widely used endometrial cell lines (Ishikawa and RL 95-2). Control MCF-7 (ERα-positive) and MDA-MB-231 (ERβ-positive) breast cancer cells were also analyzed. (FIG. 7A). […] PELP1 modulation of the transactivation functions of both ER subtypes was performed using ERα or ERβ specific ligands. […] PELP1 also promotes ERβ transcriptional activity in Ishikawa cells when cotransfected with PELP1 (FIG. 7F). Further, endogenous PELP1 effectively interacts with ERβ in Ishikawa cells in a ligand-dependent manner (FIG. 7G).

MCF-7 cells = test: Tamoxifen-mediated agonist signaling, reporter gene and cell growth assays, MCF-7 cells; format: cell-based; details: MCF-7 cells co-transfected with ERE reporter gene; two days
Excerpt: as §1

ER = ER transactivation assay (ERE-luciferase) in ER-positive Ishikawa cells; format: cell-based; details: coexpression of PELP1, compared to 6 fold in vector-transfected cells, FIG. 7B
Method: as §2

Row | ERα mediated transcription (ERα [1]) | Compound | ERE luciferase reporter activity (ERE luciferase reporter; FIG. 2) | ERE luciferase reporter activity (ERE luciferase reporter; FIG. 2, listed as Histone H1 mutant) | estrogen-mediated transcriptional activation (ERE reporter gene activity) (ERE reporter gene) | tamoxifen-mediated agonist activity (Ishikawa cells) | increase of 3XEREluc reporter activity (ERα [2]) | tamoxifen-mediated agonist activity (MCF-7 cells) | increase of ERE-luciferase (luc) activity in ligand-stimulated cells (ER) [fold]
1 | blocks ERα mediated transcription | PELP1 H1 mutant: C-terminal deleted PELP1 mutant (aa 1-877), stop codon after amino acid 877, lacks Histone H1 binding domain; SEQ ID NO:14 | effectively suppressed the estrogen mediated ER coactivation functions | substantially reduced the magnitude of the transcriptional activation by estrogen | blocking of estrogen-mediated transcriptional activation | disrupted tamoxifen-mediated agonist activity |  |  | 
2 |  | CCCc1c(-c2ccc(O)cc2)nn(-c2ccc(O)cc2)c1-c1ccc(O)cc1 [PPT] |  |  |  |  | 9 times more than the vector-transfected control |  | 
3 |  | wild-type PELP1: Proline, glutamic acid and leucine rich protein 1, full length, expressed from PELP1 cDNA; SEQ ID NO:1 |  |  |  | augmented tamoxifen-mediated agonist activity |  | not in MCF-7 cells | 9
